{"source": "patent US20090186832A1", "about": "(priority 2008, published 2009)", "key": {"[1]": {"settings": "dog, in vivo"}, "[2]": {"settings": "for Simulated gastric fluid (pH 1.1): % remaining after 2 h/37° C. / Simulated intestinal fluid (pH 6.8): % remaining after 2 h/37° C.: simulated gi fluid"}, "[3]": {"settings": "plasma meptazinol, oral 1 mg meptazinol free base/kg, group 1 dogs (G1)"}}, "note": "Counter-ions that a name gives are not always drawn. Like-named read-outs stand apart in the source and are kept apart here."}
{"smiles": "CCC1(c2cccc(OC(=O)NC(C)C(=O)NC(C)C(=O)O)c2)CCCCN(C)C1.O=C(O)C(F)(F)F", "note": "(mixture of isomers) [Meptazinol ala-ala dipeptide TFA salt]", "values": [{"measurement": "AUC (mean ngh/mL ± SD)", "setting": "[3]", "value": "11.4 ± 2.9", "unit": "ngh/mL"}, {"measurement": "Cmax (mean ng/mL ± SD)", "setting": "[3]", "value": "2.73 ± 1.28", "unit": "ng/mL"}]}
{"smiles": "CCC1(c2cccc(OC(=O)NC(C)C(=O)O)c2)CCCCN(C)C1.Cl", "note": "(mixture of isomers) [Meptazinol alanine carbamate HCl salt]", "values": [{"measurement": "Mean relative bioavailability %", "setting": "dog, in vivo", "value": 116, "unit": "%"}, {"measurement": "AUC (mean ngh/mL ± SD)", "setting": "dog, in vivo, po", "value": "16.3 ± 3.6"}, {"measurement": "Cmax (mean ng/mL ± SD)", "setting": "dog, in vivo, po", "value": "5.2 ± 1.59", "unit": "ng/mL"}]}
{"smiles": "CCC1(c2cccc(OC(=O)NC(CC(=O)O)C(=O)O)c2)CCCCN(C)C1.O=C(O)C(F)(F)F", "note": "(mixture of isomers) [Meptazinol apartic acid carbamate TFA salt]", "values": [{"measurement": "Mean relative bioavailability %", "setting": "dog, in vivo", "value": 273, "unit": "%"}, {"measurement": "AUC (mean ngh/mL ± SD), *AUC0-t", "setting": "dog, in vivo, po", "value": "34.8* ± 1.0"}, {"measurement": "Cmax (mean ng/mL ± SD)", "setting": "dog, in vivo, po", "value": "2.65 ± 0.34", "unit": "ng/mL"}]}
{"smiles": "CCC1(c2cccc(OC(=O)NC(CC(C)C)C(=O)O)c2)CCCCN(C)C1.O=C(O)C(F)(F)F", "note": "(mixture of isomers) [Meptazinol leucine carbamate TFA salt]", "values": [{"measurement": "Mean relative bioavailability %", "setting": "dog, in vivo", "value": 70, "unit": "%"}, {"measurement": "AUC (mean ngh/mL ± SD)", "setting": "dog, in vivo, po", "value": "9.27 ± 1.6"}, {"measurement": "Cmax (mean ng/mL ± SD)", "setting": "dog, in vivo, po", "value": "3.32 ± 1.4", "unit": "ng/mL"}]}
{"smiles": "CCC1(c2cccc(OC(=O)NC(Cc3c[nH]c4ccccc34)C(=O)O)c2)CCCCN(C)C1.O=C(O)C(F)(F)F", "note": "(mixture of isomers) [Meptazinol tryptophan carbamate TFA salt]", "values": [{"measurement": "Mean relative bioavailability %", "setting": "dog, in vivo", "value": 149, "unit": "%"}, {"measurement": "AUC (mean ngh/mL ± SD), *AUC0-t", "setting": "dog, in vivo, po", "value": "19.1* ± 8.9"}, {"measurement": "Cmax (mean ng/mL ± SD)", "setting": "dog, in vivo, po", "value": "8.21 ± 2.56", "unit": "ng/mL"}]}
{"smiles": "CCC1(c2cccc(OC(=O)NC(Cc3ccc(O)cc3)C(=O)O)c2)CCCCN(C)C1.O=C(O)C(F)(F)F", "note": "(mixture of isomers) [Meptazinol tyrosine carbamate TFA salt]", "values": [{"measurement": "Mean relative bioavailability %", "setting": "dog, in vivo", "value": 52, "unit": "%"}, {"measurement": "AUC (mean ngh/mL ± SD), *AUC0-t", "setting": "dog, in vivo, po", "value": "6.61* ± 0.70"}, {"measurement": "Cmax (mean ng/mL ± SD)", "setting": "dog, in vivo, po", "value": "2.23 ± 0.16", "unit": "ng/mL"}]}
{"smiles": "CCC1(c2cccc(OC(=O)NC(C(=O)OC)C(C)C)c2)CCCCN(C)C1.Cl", "note": "(mixture of isomers) [Meptazinol valine carbamate methyl ester HCl]", "values": [{"measurement": "Mean relative bioavailability %", "setting": "dog, in vivo", "value": 606, "unit": "%"}, {"measurement": "AUC (mean ngh/mL ± SD)", "setting": "dog, in vivo, po", "value": "78.1 ± 17.1"}, {"measurement": "Cmax (mean ng/mL ± SD)", "setting": "dog, in vivo, po", "value": "44.8 ± 8.2", "unit": "ng/mL"}]}
{"smiles": "CCC1(c2cccc(OC(=O)NCC(=O)O)c2)CCCCN(C)C1.O=C(O)C(F)(F)F", "note": "(racemic) [Meptazinol glycine carbamate TFA salt]", "values": [{"measurement": "Mean relative bioavailability %", "setting": "dog, in vivo", "value": 79, "unit": "%"}, {"measurement": "AUC (mean ngh/mL ± SD), *AUC0-t", "setting": "dog, in vivo, po", "value": "10.2* ± 3.4"}, {"measurement": "Cmax (mean ng/mL ± SD)", "setting": "dog, in vivo, po", "value": "2.51 ± 0.90", "unit": "ng/mL"}]}
{"smiles": "CCC(C)[C@@H](NC(=O)Oc1ccc2c3c1OC1[C@@]4(OC)CC[C@@]5(C[C@@H]4[C@@](C)(O)C(C)(C)C)[C@@H](C2)N(CC2CC2)CC[C@]315)C(=O)O", "note": "(some centres unmarked) [Buprenorphine isoleucine carbamate]", "values": [{"measurement": "Cmax (mean ng/mL ± SD)", "setting": "[1]; beagle, po", "value": "1.25 ± 0.51", "unit": "ng/mL"}, {"measurement": "Mean relative bioavailability %", "setting": "[1]; beagle, po", "value": 110, "unit": "%"}, {"measurement": "AUC (mean ngh/mL ± SD)", "setting": "[1]", "value": "13.6 ± 3.9"}]}
{"smiles": "COC12CCC3(CC1C(C)(O)C(C)(C)C)C1Cc4ccc(OC(=O)NC(CCCCN)C(=O)O)c5c4C3(CCN1CC1CC1)C2O5", "note": "(centres unmarked) [Buprenorphine lysine carbamate]", "values": [{"measurement": "AUC (mean ngh/mL ± SD)", "setting": "[1]", "value": 4.70}, {"measurement": "Cmax (mean ng/mL ± SD)", "setting": "[1]", "value": "0.25 ± 0.19", "unit": "ng/mL"}, {"measurement": "Mean relative bioavailability %", "setting": "[1]", "value": 38, "unit": "%"}]}
{"smiles": "COC12CCC3(CC1C(C)(O)C(C)(C)C)C1Cc4ccc(OC(=O)NC(Cc5ccccc5)C(=O)O)c5c4C3(CCN1CC1CC1)C2O5", "note": "(centres unmarked) [Buprenorphine phenylalanine carbamate]", "values": [{"measurement": "pH 10.0 buffer: % remaining after 2 h/20° C.", "setting": "[2]", "value": 74, "unit": "%"}, {"measurement": "Distilled water (pH 5.9): % remaining after 2h/20° C.", "setting": "[2]", "value": 99, "unit": "%"}, {"measurement": "Simulated gastric fluid (pH 1.1): % remaining after 2 h/37° C.", "setting": "[2]", "value": 100, "unit": "%"}, {"measurement": "Simulated intestinal fluid (pH 6.8): % remaining after 2 h/37° C.", "setting": "[2]", "value": 45, "unit": "%"}, {"measurement": "AUC (mean ngh/mL ± SD)", "setting": "[1]", "value": "9.66 ± 1.92"}, {"measurement": "Cmax (mean ng/mL ± SD)", "setting": "[1]", "value": "0.86 ± 0.32", "unit": "ng/mL"}, {"measurement": "Mean relative bioavailability %", "setting": "[1]", "value": 84.5, "unit": "%"}]}
{"smiles": "COC12CCC3(CC1C(C)(O)C(C)(C)C)C1Cc4ccc(OC(=O)NC(CC(=O)O)C(=O)O)c5c4C3(CCN1CC1CC1)C2O5", "note": "(centres unmarked) [Buprenorphine-Asp-Carbamate]", "values": [{"measurement": "pH 10.0 buffer: % remaining after 2 h/20° C.", "setting": "[2]", "value": 85, "unit": "%"}, {"measurement": "Distilled water (pH 5.9): % remaining after 2h/20° C.", "setting": "[2]", "value": 100, "unit": "%"}, {"measurement": "Simulated gastric fluid (pH 1.1): % remaining after 2 h/37° C.", "setting": "[2]", "value": 100, "unit": "%"}, {"measurement": "Simulated intestinal fluid (pH 6.8): % remaining after 2 h/37° C.", "setting": "[2]", "value": 99, "unit": "%"}]}
{"smiles": "CCC(C)[C@H](NC(=O)Oc1cccc(C2(CC)CCCCN(C)C2)c1)C(=O)O", "note": "(some centres unmarked) [Meptazinol isoleucine carbamate TFA salt]", "values": [{"measurement": "AUC (mean ngh/mL ± SD)", "setting": "[3]", "value": "34.9 ± 11", "unit": "ngh/mL"}]}
{"smiles": "CCC1(c2cccc(OC(=O)N[C@H](C(=O)N[C@@H](C)C(=O)O)C(C)C)c2)CCCCN(C)C1", "note": "(some centres unmarked) [Meptazinol val-ala dipeptide TFA salt]", "values": [{"measurement": "AUC (mean ngh/mL ± SD)", "setting": "[3]", "value": "36.5 ± 13", "unit": "ngh/mL"}]}
{"smiles": "CCC1(c2cccc(OC(=O)N[C@H](C(=O)NCC(=O)O)C(C)C)c2)CCCCN(C)C1", "note": "(some centres unmarked) [Meptazinol val-gly dipeptide TFA salt]", "values": [{"measurement": "AUC (mean ngh/mL ± SD)", "setting": "[3]", "value": "39.9 ± 17", "unit": "ngh/mL"}]}
{"smiles": "CCC1(c2cccc(OC(=O)N[C@H](C(=O)N[C@H](C(=O)O)C(C)C)C(C)C)c2)CCCCN(C)C1", "note": "(stereo partly drawn) [Meptazinol val-val dipeptide TFA salt, meptazinol-(S)-valine-(S)-valine carbamate trifluoroacetate]", "values": [{"measurement": "AUC (mean ngh/mL ± SD)", "setting": "[3]", "value": "45.0 ± 12", "unit": "ngh/mL"}]}
